Consider 30 compounds from patent US9242996B2 (Novartis AG, priority 2013, dated 2016).

Sequence of activated ERK2 (P28482 whole entry): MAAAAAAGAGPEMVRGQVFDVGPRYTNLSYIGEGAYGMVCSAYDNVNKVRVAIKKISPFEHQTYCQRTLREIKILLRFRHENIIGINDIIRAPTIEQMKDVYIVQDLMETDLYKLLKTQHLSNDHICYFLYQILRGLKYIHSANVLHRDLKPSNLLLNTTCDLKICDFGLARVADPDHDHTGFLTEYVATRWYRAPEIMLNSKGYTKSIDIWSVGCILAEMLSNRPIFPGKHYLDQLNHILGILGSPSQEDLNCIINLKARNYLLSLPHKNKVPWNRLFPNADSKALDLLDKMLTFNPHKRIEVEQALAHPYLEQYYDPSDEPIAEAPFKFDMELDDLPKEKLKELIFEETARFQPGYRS

This assay deals with activated ERK2 (Homo sapiens (Human), UniProt P28482). The assay can be described thus: Activated ERK2 (20 pM) Kinase Assay (AlphaScreen, ERKtide phosphorylation). Format: biochemical. As to conditions: 0.02 nM ERK2, 400 nM ERKtide peptide, 35 μM ATP, 30 min preincubation. On the procedure: Activated ERK2 (20 pM) Kinase Assay:
The assay was carried out in 20 mM HEPES [pH 7.5], 5 mM MgCl2, 1 mM DTT, 0.01% Tween-20, 0.05% BSA using 0.02 nM ERK2, 400 nM ERKtide peptide and 35 μM ATP (all concentrations are final in the reaction) in a total volume of 10.25 μL. […] Compound dilution series were prepared in 100% DMSO. ERK2 was preincubated with compounds for 30 minutes at ambient temperature. Reaction was initiated by addition of a substrate cocktail of ERKtide peptide and ATP and was allowed to proceed for 4 hours at ambient temperature. Reaction was terminated by addition of 10 μL of a 2× stop buffer consisting of 100 mM Tris-Cl [pH 7.5], 25 mM EDTA, 0.01% Tween 20, 20 μg/mL of AlphaScreen Protein A Acceptor Beads, 20 μg/mL of Streptavidin Donor Beads (PerkinElmer, Waltham, Mass.), and 1:1000 dilution phospho-EGF Receptor (Thr669) antibody (Cat #8808, Cell Signaling Technology, Danvers, Mass.). Terminated reactions were read, after overnight incubation in the dark, on an EnVision Multilabel Plate Reader (PerkinElmer, Waltham, Mass.), with excitation and emission wavelengths set to 680 nm and 570 nm, respectively. IC50 values were determined using a four-parameter fit.
On the technique in general: Bead proximity is the source of the signal in Alpha formats.
For orientation: IC50 means the concentration at which inhibition is half-maximal. Read a high IC50 as weaker potency. For the compound `Nc1ncc([C@H]2CCC[C@@H](O)C2)nc1-c1ccc(C(=O)N[C@H](CO)c2cccc(Cl)c2)c(F)c1` (single isomer, unassigned) [Example 198], the IC50 was found to be 0.223 nM.
The result for `Nc1ncc([C@H]2CCC[C@@H](O)C2)nc1-c1ccc(C(=O)N[C@H](CO)c2cccc(Cl)c2)c(F)c1` (single isomer, unassigned) [Example 199] reads 0.3 nM; that for `NC[C@@H](NC(=O)c1ccc(-c2nc(C3CCCC(O)C3)cnc2N)cc1F)c1cccc(Cl)c1` (single isomer, unassigned) [Example 367], 0.15 nM.
The result for `NC[C@@H](NC(=O)c1ccc(-c2nc(C3CCCC(O)C3)cnc2N)cc1F)c1cccc(Cl)c1` (single isomer, unassigned) [Example 368] reads 0.0895 nM; that for `NC[C@@H](NC(=O)c1ccc(-c2nc(C3CCCC(O)C3)cnc2N)cc1F)c1cccc(Cl)c1` (single isomer, unassigned) [Example 370], 0.138 nM; that for `NC[C@@H](NC(=O)c1ccc(-c2nc(C3CCCC(O)C3)cnc2N)cc1F)c1cccc(Cl)c1` (single isomer, unassigned) [Example 372], 0.04 nM.
Turning to `Nc1ncc(C2CCCC(O)C2)nc1-c1ccc(C(=O)N[C@H](CO)c2cc(F)cc(Br)c2)c(F)c1` (single isomer, unassigned) [Example 384], the IC50 came out at 0.0614 nM.
`Nc1ncc(C2CCCC(O)C2)nc1-c1ccc(C(=O)N[C@H](CO)c2cccc(Br)c2)c(F)c1` (single isomer, unassigned) [Example 385] yielded an IC50 of 0.122 nM. Compared with the last compound, the IC50 is about 2-fold higher.
The value for `Nc1ncc(C2CCCC(O)C2)nc1-c1ccc(C(=O)N[C@H](CO)c2cc(F)cc(Br)c2)c(F)c1` (single isomer, unassigned) [Example 386] was 0.0333 nM.
The result for `Nc1ncc(C2CCCC(O)C2)nc1-c1ccc(C(=O)N[C@H](CO)c2cccc(Br)c2)c(F)c1` (single isomer, unassigned) [Example 389] reads 0.0308 nM.
The value for `Nc1ncc(C2CCCC(O)C2)nc1-c1ccc(C(=O)N[C@H](CO)c2cccc(Cl)c2)c(F)c1` (single isomer, unassigned) [Example 391] was 0.115 nM.
`Nc1ncc(C2CCCC(O)C2)nc1-c1ccc(C(=O)N[C@H](CO)c2cccc(Cl)c2)c(F)c1` (single isomer, unassigned) [Example 393] displayed an IC50 of 0.0752 nM.
`CN1C[C@@H](NC(=O)c2ccc(-c3cc(-c4cnn(C)c4)cnc3N)cc2F)[C@H](c2ccc(F)c(Cl)c2)C1` (stereo in doubt) [Example 207, trans-4-(2-amino-5-(1-methyl-1H-pyrazol-4-yl)pyridin-3-yl)-N-((3S,4R)-4-(3-chloro-4-fluorophenyl)-1-methylpyrrolidin-3-yl)-2-fluorobenzamide] had an IC50 of 430 nM.
The compound `CN1C[C@H](NC(=O)c2ccc(-c3cc(-c4cnn(C)c4)cnc3N)cc2F)[C@@H](c2ccc(F)c(Cl)c2)C1` (stereo in doubt) [Example 208, trans-4-(2-amino-5-(1-methyl-1H-pyrazol-4-yl)pyridin-3-yl)-N-((3R,4S)-4-(3-chloro-4-fluorophenyl)-1-methylpyrrolidin-3-yl)-2-fluorobenzamide] returned an IC50 of 7440 nM.
`CN1C[C@@H](NC(=O)c2ccc(-c3cc(-c4cnn(C)c4)cnc3N)cc2F)[C@H](c2ccc(Cl)c(F)c2)C1` (stereo in doubt) [Example 209, trans-4-(2-amino-5-(1-methyl-1H-pyrazol-4-yl)pyridin-3-yl)-N-((3S,4R)-4-(4-chloro-3-fluorophenyl)-1-methylpyrrolidin-3-yl)-2-fluorobenzamide]: the IC50 was 3280 nM.
The compound `CN1C[C@H](NC(=O)c2ccc(-c3cc(-c4cnn(C)c4)cnc3N)cc2F)[C@@H](c2ccc(Cl)c(F)c2)C1` (stereo in doubt) [Example 210, trans-4-(2-amino-5-(1-methyl-1H-pyrazol-4-yl)pyridin-3-yl)-N-((3R,45)-4-(4-chloro-3-fluorophenyl)-1-methylpyrrolidin-3-yl)-2-fluorobenzamide] registered an IC50 of 10300 nM.
The result for `CO[C@H]1CC[C@H](c2cnc(N)c(-c3ccc(C(=O)N[C@H](CN)c4cccc(Cl)c4)c(F)c3)n2)CC1` [Example 18, N—((S)-2-amino-1-(3-chlorophenyl)ethyl)-4-(3-amino-6-((1r,4S)-4-methoxycyclohexyl)pyrazin-2-yl)-2-fluorobenzamide] reads 0.0396 nM; that for `C[C@]1(O)CC[C@@H](c2cnc(N)c(-c3ccc(C(=O)N[C@H](CO)c4cccc(Cl)c4)c(F)c3)n2)CC1` [Example 105, 4-(3-amino-6-((1s,4R)-4-hydroxy-4-methylcyclohexy)pyrazin-2-yl)-N-((S)-1-(3-chlorophenyl)-2-hydroxyethyl)-2-fluorobenzamide], 2.56 nM.
With `C[C@]1(O)CC[C@H](c2cnc(N)c(-c3ccc(C(=O)N[C@H](CO)c4cccc(Cl)c4)c(F)c3)n2)CC1` [Example 106, 4-(3-amino-6-((1r,4S)-4-hydroxy-4-methylcyclohexyl)pyrazin-2-yl)-N-((S)-1-(3-chlorophenyl)-2-hydroxyethyl)-2-fluorobenzamide], the IC50 was 1.28 nM. This IC50 is about 2-fold lower than that of the compound before.
The result for `Cc1c(-c2cnc(N)c(-c3ccc(C(=O)N[C@H](CO)c4cccc(Cl)c4)c(F)c3)c2)cnn1C` [Example 133, (S)-4-(2-amino-5-(1-deuterido-methyl, 5-methyl-1H-pyrazol-4-yl)pyridin-3-yl)-N-(1-(3-chlorophenyl)-2-hydroxyethyl)-2-fluorobenzamide] reads 0.0187 nM.
The value for `Nc1ncc(C2CCOCC2)nc1-c1ccc(C(=O)N[C@H](CO)c2ccccc2)cc1` [Example 135, (S)-4-(3-amino-6-(2,2,6,6-tetradeuterido-tetrahydro-2H-pyran-4-yl)pyrazin-2-yl)-N-(2-hydroxy-1-phenylethyl)benzamide] was 0.631 nM; that for `NC[C@@H](NC(=O)c1ccc(-c2nc(C3CCOCC3)cnc2N)cc1F)c1cccc(Cl)c1` [Example 174, (S)—N-(2-amino-1-(3-chlorophenyl)ethyl)-4-(3-amino-6-(tetrahydro-2H-pyran-4-yl)pyrazin-2-yl)-2-fluorobenzamide] was 0.021 nM.
The result for `CNC[C@@H](NC(=O)c1ccc(-c2nc(C3CCOCC3)cnc2N)cc1F)c1cccc(Cl)c1` [Example 176, (S)-4-(3-amino-6-(tetrahydro-2H-pyran-4-yl)pyrazin-2-yl)-N-(1-(3-chlorophenyl)-2-(methylamino)ethyl)-2-fluorobenzamide] reads 0.0282 nM; that for `Nc1ncc([C@H]2CC[C@H](O)CC2)nc1-c1ccc(C(=O)N[C@H](CO)c2cc(F)cc(CF)c2)c(F)c1` [Example 177, 4-(3-amino-6-((1r,4S)-4-hydroxycyclohexyl)pyrazin-2-yl)-2-fluoro-N—((S)-1-(3-fluoro-5-(fluoromethyl)phenyl)-2-hydroxyethyl)benzamide], 0.0229 nM.
Compound `Nc1ncc([C@H]2CC[C@@H](O)CC2)nc1-c1ccc(C(=O)N[C@H](CO)c2cc(F)cc(CF)c2)c(F)c1` [Example 178, 4-(3-amino-6-((1s,4R)-4-hydroxycyclohexyl)pyrazin-2-yl)-2-fluoro-N—((S)-1-(3-fluoro-5-(fluoromethyl)phenyl)-2-hydroxyethyl)benzamide] returned an IC50 of 0.211 nM.
The value for `NC[C@@H](NC(=O)c1ccc(-c2nc(C3CCOCC3)cnc2N)cc1F)c1cc(F)cc(I)c1` [Example 179, (S)—N-(2-amino-1-(3-fluoro-5-iodophenyl)ethyl)-4-(3-amino-6-(tetrahydro-2H-pyran-4-yl)pyrazin-2-yl)-2-fluorobenzamide] was 0.00612 nM; that for `NC[C@@H](NC(=O)c1ccc(-c2nc(C3CCOCC3)cnc2N)cc1F)c1cc(F)cc(Br)c1` [Example 180, (S)—N-(2-amino-1-(3-bromo-5-fluorophenyl)ethyl)-4-(3-amino-6-(tetrahydro-2H-pyran-4-yl)pyrazin-2-yl)-2-fluorobenzamide] was 0.00671 nM; that for `NC[C@@H](NC(=O)c1ccc(-c2nc(C3CCOCC3)cnc2N)cc1F)c1cc(F)cc(Cl)c1` [Example 181, (S)—N-(2-amino-1-(3-chloro-5-fluorophenyl)ethyl)-4-(3-amino-6-(tetrahydro-2H-pyran-4-yl)pyrazin-2-yl)-2-fluorobenzamide] was 0.0119 nM.
The value for `Nc1ncc([C@H]2CC[C@H](O)[C@@H](F)C2)nc1-c1ccc(C(=O)N[C@H](CO)c2cc(F)cc(Br)c2)c(F)c1` [Example 182, 4-(3-amino-6-((1S,3S,4S)-3-fluoro-4-hydroxycyclohexyl)pyrazin-2-yl)-N—((S)-1-(3-bromo-5-fluorophenyl)-2-hydroxyethyl)-2-fluorobenzamide] was 0.051 nM; that for `Nc1ncc([C@@H]2CC[C@@H](O)[C@H](F)C2)nc1-c1ccc(C(=O)N[C@H](CO)c2cc(F)cc(Br)c2)c(F)c1` [Example 183, 4-(3-amino-6-((1R,3R,4R)-3-fluoro-4-hydroxycyclohexyl)pyrazin-2-yl)-N—((S)-1-(3-bromo-5-fluorophenyl)-2-hydroxyethyl)-2-fluorobenzamide] was 0.0571 nM.
